From patent publication US3972991A, “Radioisotopic assay and binder therefor” (priority 1974, dated 1976)
Where a name gives a salt, the structure may show the parent alone. Blank lines part the entries; values can stand above or below the molecule they belong to.

What was measured:
[1] = tested on: hog kidney binder factor; assay: effect of enzymes, pH, ions, chelators, denaturants and other agents on binding of 3H-PGA to hog kidney binder; details: for effect on binding activity of the binder composition: before complex formation
[2] = molecular target: hog kidney folate binder; assay: direct competition for PGA binding sites in hog kidney folate binder (FIG. 6A)
Procedure: The reaction was started by addition of folate binder and allowed to proceed for 30 minutes at room temperature in the dark. The reaction was stopped by placing the tubes on ice and adding 1.0 ml of a suspension of powdered activated charcoal coated with albumin. After 2 to 3 minutes on ice, the tubes were centrifuged at 6000 × G for 10 minutes at 4°C to remove the charcoal absorbed "free" folate. 1.0 ml of the clear supernatant fluid which contained the folate/binder complex was counted by liquid scintillation spectroscopy according to known procedures. Charcoal controls prepared by substituting buffer for binder in one series of tubes were prepared to determine the number of counts not removed by the charcoal. Percent maximum binding was calculated by the formula [formula]

[3] = tested on: hog kidney binder factor; assay: sequential addition of unlabeled folate derivatives and 3H-PGA, displacement (FIG. 6B); assay type: binding; details: PGA curve of FIG. 6B
Procedure: The binding conditions were similar to those used in obtaining the data appearing in FIG. 6A except that 3 pmoles of ^3 H-PGA was added to the reaction containing enough binder factor to bind about 2.5 pmoles of PGA. The binder was preincubated for 30 minutes in the dark at room temperature with unlabeled folate derivatives as indicated. Then the ^3 H-PGA was added and the reaction allowed to continue for an additional 30 minutes and then stopped and counted as in obtaining the data for FIG. 6A.
The calculated curve of FIG. 6B depicts the relationship to be expected by balancing on a molar basis the binding capacity of the hog kidney binder factor with the known pmoles of folate analog added in the absence of any displacement. […] The hog kidney binder factor thus differs from other high affinity folate binder factors such as those found in milk and in serum and in leukocytes of some patients with chronic granulocytic leukemia.

[4] = storage stability; assay type: physicochemical
Procedure: The standard or known folate (d,1,L-5-methyltetrahydrofolic acid) (Sigma Chemical) is dissolved in 0.05 M potassium phosphate buffer pH 7.6 and then brought to 0.1 M with 2-mercapto-ethanol. Here the mercapto-alcohol acts as a stabilizer for the folate or folic acid.
High specific activity ^3 H-PGA (15-50 Ci/m mole; Amersham Searle) is conveniently utilized as the tracer or labeled compound. It is dissolved in 20% ethanol and stored at -80°C. For use in the assay, the stock solution is diluted 1:100 in potassium phosphate buffer (0.05 M pH 7.6).
Finely divided activated charcoal coated with albumin is prepared by mixing equal volumes of a 5% powdered activated charcoal (Norit A) suspension (w/v, in distilled water) and a 1% aqueous solution of bovine albumin (Fraction V of Cohn).
Blood to be assayed for folate is obtained by venapuncture and allowed to clot at room temperature. The serum is collected by centrifugation and 5 milligrams of ascorbic acid per milliliter of serum is added.

[5] = tested on: hog kidney binder; assay: direct binding studies with labeled folates on hog kidney binder
[6] = tested on: hog kidney binder factor; assay: rate of PGA binder complex formation and dissociation; assay type: binding; details: for initial rate of binding: 3H-PGA approximately 20% excess
Procedure: The rate of PGA binder complex formation with hog kidney binder factor was determined at several temperatures by equilibrating solutions of the binder and of ^3 H-PGA at the appropriate temperature and then combining aliquots of each such that the ^3 H-PGA was in approximately 20% excess to the binding capacity of the hot kidney binder factor composition. The reaction was terminated by the addition of 1.0 ml of ice cold suspension of powdered activated charcoal coated with albumin.

[7] = tested on: All other binder factors; assay: inactivation of other binder factors by trypsin; assay type: binding; details: trypsin solution 1:250, 1 mg/ml
Procedure: Preincubating a 1.0 ml aliquot of binder extract from hog kidney having a binding capacity of 25 ng PGA/ml, with 1.0 ml RNase (Worthington, 2 micrograms per ml) or with DNase I (Worthington 2 micrograms per ml) for 30 minutes at 37°C had no effect on the binding of ^3 H-PGA. […] All other binder factors are inactivated by a trypsin solution 1:250, 1 mg/ml.

Molecule: OCCS [2-mercaptoethanol]
effect on the binding reaction ([1]; concentrations of 10^-^7 to 10^-^1 M): no effect

Molecule: CN1c2c(nc(N)[nH]c2=O)NCC1CNc1ccc(C(=O)N[C@@H](CCC(=O)O)C(=O)O)cc1 (stereo partly shown) [5CH3 FH4, d,1,5-methyltetrahydrofolic acid]
amount required to achieve 50% inhibition of 3H-PGA binding ([2]; FIG. 6A, 0.225 pmoles 3H-PGA, pH 7.6, total volume 1.0 ml, 30 min room temperature): about 0.32 pmoles | tightness of binding of the hog kidney binder factor with PGA and 5CH3 FH4 [3]: approximately equal | stability of stock solution ([4]; approximately 5 micrograms per ml, 0.1 M 2-mercaptoethanol, pH 7.6, -80°C): at least 6 months

Molecule: O=C(O)CN(CCN(CC(=O)O)CC(=O)O)CC(=O)O [EDTA, ethyldiamine tetraacetic acid]
effect on binding at any pH ([1]; 20 mM): No effect

competition for PGA binding sites [2]: high degree of competition
Molecule: Nc1nc2c(c(=O)[nH]1)NC(CN(C=O)c1ccc(C(=O)N[C@@H](CCC(=O)O)C(=O)O)cc1)CN2 (stereo partly shown) [N-10, formyltetrahydrofolic acid]

binding affinity less than that of 3H-PGA ([5]; direct binding, 3H-MTX 13 Ci/mmole): at least 500 times
Molecule: CN(Cc1cnc2nc(N)nc(N)c2n1)c1ccc(C(=O)N[C@@H](CCC(=O)O)C(=O)O)cc1 [^3 H-MTX, ^3 H-methotrexate]

binding results compared with those obtained with 3H-PGA [5]: essentially the same | bound by the extract, of the available labeled folate [5]: more than 90%
Molecule: [14CH3]N1c2c([nH]c(N)nc2=O)NCC1CNc1ccc(C(=O)N[C@@H](CCC(=O)O)C(=O)O)cc1 (stereo partly shown) [^14 C--5CH3 FH4]

Molecule: [Ca+2] [calcium]
effect on binding at any pH ([1]; 5 mM): No effect

Molecule: O=C(O)CC(O)(CC(=O)O)C(=O)O [citrate]
effect on binding at any pH ([1]; 10 mM): No effect

competition for PGA binding sites [2]: high degree of competition
Molecule: Nc1nc2c(c(=O)[nH]1)NC(CNc1ccc(C(=O)N[C@@H](CCC(=O)O)C(=O)O)cc1)CN2 (stereo partly shown) [d, 1-tetrahydrofolic acid]

Molecule: N=C(N)N [guanidine hydrochloride]
effect on folate binder complex after it had formed ([1]; 6 M): could disrupt the complex | reversibility of the guanidine hydrochloride effect ([1]; 6 M): nearly completely reversible | effect on binding activity of the binder composition ([1]; 6 M): binding activity was lost

Molecule: [Mg+2] [magnesium]
effect on binding at any pH ([1]; 5 mM): No effect

Molecule: c1cnc2c(c1)ccc1cccnc12 [o-phenanthroline]
effect on the binding reaction ([1]; concentrations up to 2.0 × 10^-^6 M): no effect

Molecule: NC(N)=O [urea]
effect on folate binder complex after it had formed ([1]; 8 M): no effect | effect on binding activity of the binder composition ([1]; 8 M): binding activity was lost

Molecule: [Zn] [zinc]
effect on binding at any pH ([1]; 5 mM): No effect

initial rate of binding ([6]; 4°C): about 0.65 % per second | initial rate of binding ([6]; 21°C): 1.3 % per second | initial rate of binding ([6]; 37°C): 2.5 % per second | stability [4]: unstable
Molecule: ^3 H-pteroylmonoglutamate [^3 H-PGA]
disassociation of the 3H-PGA binder complex ([6]; one hour at 37°C, 50-fold excess of unlabeled PGA): no significant disassociation

B1: trypsin: solution of trypsin (protein, UniProt P00760 24-246, looked up)
Serine protease 1: IVGGYTCGANTVPYQVSLNSGYHFCGGSLINSQWVVSAAHCYKSGIQVRLGEDNINVVEGNEQFISASKSIVHPSYNSNTLNNDIMLIKLKSAASLNSRVASISLPTSCASAGTQCLISGWGNTKSSGTSYPDVLKCLKAPILSDSSCKSAYPGQITSNMFCAGYLEGGKDSCQGDSGGPVVCSGKLQGIVSWGSGCAQKNKPGVYTKVCNYVSWIKQTIASN
effect of preincubation with trypsin on hog binder factor ([1]; 1.0 ml trypsin solution, 30 minutes): completely inactivated | inactivation of other binder factors by trypsin [7]: inactivated

B2: RNase: RNase (Worthington) (protein, UniProt P61823 27-150, looked up)
Ribonuclease pancreatic: KETAAAKFERQHMDSSTSAASSSNYCNQMMKSRNLTKDRCKPVNTFVHESLADVQAVCSQKNVACKNGQTNCYQSYSTMSITDCRETGSSKYPNCAYKTTQANKHIIVACEGNPYVPVHFDASV
effect of preincubation on binding of 3H-PGA ([1]; 2 micrograms per ml, 30 minutes at 37°C): no effect
